Data as given in ChEMBL document CHEMBL1201862, “PubChem BioAssay data set” (2004).
Activity calls are given as the source filed them.

Assays:
[1] = target: Protein-tyrosine kinase 2-beta (Homo sapiens, UniProt Q14289);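 further: potency of inhibitors of PYK2 kinase phosphorylation of poly-GT substrate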
[2] = target: Genome polyprotein (Hepatitis C virus, UniProt Q2Q167); assay: disruption of hepatitis C core self-association – biochemical, TR-FRET, dose response (AID 2159); set-up: species or system Hepacivirus hominis;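 further: blocks dimerization of HCV core protein measured by TR-FRET between tagged core106 pairs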
[3] = test system: HT-1080; assay: HT1080 cell viability loss – fluorescence readout (AID 620); format: functional, cell-based; conditions: Homo sapiens
[4] = target: Peroxisome proliferator-activated receptor gamma/Nuclear receptor corepressor 2 (Homo sapiens, UniProt P37231+Q9Y618); assay: Counterscreen for NR2E3 inverse agonists: TR-FRET-based biochemical high throughput dose response assay to identify inverse agonists of the interaction between peroxisome proliferator-activated receptor gamma (PPARg) and nuclear receptor co-repressor 2 (NCOR2).; format: functional
[5] = target: Photoreceptor-specific nuclear receptor (Homo sapiens, UniProt Q9Y5X4); assay: ligands suppressing NR2E3 nuclear receptor activity – biochemical, TR-FRET, dose response (AID 463256); format: functional
[6] = target: Heat shock protein HSP 90-alpha (Homo sapiens, UniProt P07900); assay: Luminescence-based dose response biochemical high throughput screening assay for inhibitors of the Heat Shock Protein 90 (HSP90). [Related pubchem assays: 1831 (Summary AID.), 1846 (Confirmation screen.), 1789 (Primary screen.)]
[7] = target: Cytochrome P450 3A4 (Homo sapiens, UniProt P08684);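 further: CYP3A4 tested as one member of a cytochrome P450 panel screen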
[8] = target: Solute carrier family 12 member 2/member 5 (Homo sapiens, UniProt P55011+Q9H2X9); assay: KCC2 and NKCC1 inhibition by rubidium flux, cell-based, NKCC1 counter-screen (AID 1734); format: functional, HEK293
[9] = target: T1, Histone-lysine N-methyltransferase NSD2 (Homo sapiens, UniProt O96028); format: biochemical
T1 sequence (O96028 whole entry): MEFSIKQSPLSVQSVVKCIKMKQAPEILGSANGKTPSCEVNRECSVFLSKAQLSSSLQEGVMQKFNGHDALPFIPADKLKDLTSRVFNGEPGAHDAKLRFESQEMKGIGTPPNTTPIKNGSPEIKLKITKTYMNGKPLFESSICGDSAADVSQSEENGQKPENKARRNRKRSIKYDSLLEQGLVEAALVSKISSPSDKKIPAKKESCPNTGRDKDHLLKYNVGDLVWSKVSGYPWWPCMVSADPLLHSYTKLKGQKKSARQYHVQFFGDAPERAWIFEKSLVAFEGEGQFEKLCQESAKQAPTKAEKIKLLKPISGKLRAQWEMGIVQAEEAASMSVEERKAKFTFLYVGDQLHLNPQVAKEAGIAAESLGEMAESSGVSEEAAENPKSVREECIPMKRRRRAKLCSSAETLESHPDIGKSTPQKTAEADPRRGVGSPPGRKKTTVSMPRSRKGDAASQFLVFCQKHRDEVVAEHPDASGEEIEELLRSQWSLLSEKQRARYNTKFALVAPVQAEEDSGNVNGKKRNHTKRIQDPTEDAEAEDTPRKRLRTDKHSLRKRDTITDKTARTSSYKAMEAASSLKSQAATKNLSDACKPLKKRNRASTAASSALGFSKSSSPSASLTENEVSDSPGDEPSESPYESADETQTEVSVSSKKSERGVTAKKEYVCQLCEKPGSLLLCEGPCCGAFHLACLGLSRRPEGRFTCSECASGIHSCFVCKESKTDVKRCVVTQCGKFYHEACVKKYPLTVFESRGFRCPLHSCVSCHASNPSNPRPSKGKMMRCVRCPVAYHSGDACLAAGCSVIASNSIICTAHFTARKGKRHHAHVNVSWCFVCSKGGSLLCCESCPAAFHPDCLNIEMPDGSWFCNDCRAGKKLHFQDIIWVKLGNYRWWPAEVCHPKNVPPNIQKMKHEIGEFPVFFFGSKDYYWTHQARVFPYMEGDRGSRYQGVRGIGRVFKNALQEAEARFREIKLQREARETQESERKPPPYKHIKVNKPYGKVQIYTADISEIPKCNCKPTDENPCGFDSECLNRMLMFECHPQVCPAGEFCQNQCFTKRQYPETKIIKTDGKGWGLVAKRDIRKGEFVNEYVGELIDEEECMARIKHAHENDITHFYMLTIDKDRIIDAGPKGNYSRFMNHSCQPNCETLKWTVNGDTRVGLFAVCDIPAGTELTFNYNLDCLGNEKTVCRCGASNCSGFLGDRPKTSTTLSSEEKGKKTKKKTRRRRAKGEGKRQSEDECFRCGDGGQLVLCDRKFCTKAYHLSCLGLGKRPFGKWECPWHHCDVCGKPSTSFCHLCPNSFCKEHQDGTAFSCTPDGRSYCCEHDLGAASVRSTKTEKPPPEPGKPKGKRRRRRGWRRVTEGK

[10] = test system: Vero; assay: inhibition of WNV-induced cytopathic effect – cell-based, CPE readout (AID 1621); format: functional; conditions: Chlorocebus sabaeus
[11] = target: 5-hydroxytryptamine receptor 1A (Homo sapiens, UniProt P08908); format: functional
[12] = target: T2, DNA repair protein RAD52 homolog (Homo sapiens, UniProt P43351); format: functional, biochemical
T2 sequence (P43351 whole entry): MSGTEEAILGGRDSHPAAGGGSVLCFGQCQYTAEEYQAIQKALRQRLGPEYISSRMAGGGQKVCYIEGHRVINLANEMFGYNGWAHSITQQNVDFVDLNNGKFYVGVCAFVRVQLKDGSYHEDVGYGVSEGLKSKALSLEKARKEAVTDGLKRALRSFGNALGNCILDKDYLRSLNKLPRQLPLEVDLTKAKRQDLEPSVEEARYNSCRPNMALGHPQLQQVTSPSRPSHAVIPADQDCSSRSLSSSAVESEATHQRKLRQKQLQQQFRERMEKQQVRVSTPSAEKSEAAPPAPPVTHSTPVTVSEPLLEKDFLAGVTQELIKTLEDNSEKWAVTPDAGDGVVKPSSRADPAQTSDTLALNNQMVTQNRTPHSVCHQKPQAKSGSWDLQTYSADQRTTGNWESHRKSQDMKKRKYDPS

[13] = target: Kallikrein-7 (Homo sapiens, UniProt P49862); assay: Fluorescence Intensity-based biochemical primary high throughput dose response assay to identify activators of kallikrein-7 (K7) zymogen.
[14] = A549 cell cytotoxicity, dose response, cytotoxicity control, plate reader, cherry-pick, antagonist series (AID 743412); format: functional, cell-based
[15] = toxicity toward HepG2 liver cells – cell-based, plate reader, cherry-pick, antagonist series, cytotoxicity control, dose response (AID 743416); format: functional
[16] = target: T3, Oxysterols receptor LXR-beta (Homo sapiens, UniProt P55055); format: functional, cell-based;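 further: Cell-based luminescence dose-response assay of agonist activity at LXR, run as a confirmatory counterscreen to a daf-12 agonist screen; HEK293 cells with Gal4-LXR fusion and GAL4-driven luciferase reporter; agonist potency from rising luciferase signal of a Gal4-LXR reporter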
T3 sequence (P55055 whole entry): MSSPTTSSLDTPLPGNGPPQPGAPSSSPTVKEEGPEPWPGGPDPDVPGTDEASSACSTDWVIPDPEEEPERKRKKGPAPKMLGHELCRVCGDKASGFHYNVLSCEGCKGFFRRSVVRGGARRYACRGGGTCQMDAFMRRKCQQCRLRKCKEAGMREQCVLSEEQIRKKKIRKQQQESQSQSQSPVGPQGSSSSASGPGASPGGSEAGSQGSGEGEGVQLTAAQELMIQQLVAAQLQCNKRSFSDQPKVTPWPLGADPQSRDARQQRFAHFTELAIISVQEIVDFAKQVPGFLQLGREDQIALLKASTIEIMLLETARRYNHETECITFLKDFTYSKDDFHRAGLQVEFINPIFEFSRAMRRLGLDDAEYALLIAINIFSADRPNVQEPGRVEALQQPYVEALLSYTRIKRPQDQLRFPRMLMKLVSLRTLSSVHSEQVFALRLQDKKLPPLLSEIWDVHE

[17] = Luminescence Cell-Based Dose Response HTS to Identify Inhibitors of 5'UTR Stem-Loop Driven Prion Protein mRNA Translation in H4 Neuroglioblastoma Cells. [Related pubchem assays: 1827 (Project Summary), 1813 (Primary HTS)]; format: functional
[18] = cells
[19] = blockers of bursicon-stimulated LGR2 cAMP reporter – cell-based, HEK293, CRE-luciferase reporter, cherry pick, set 2, dose response (AID 743343); format: functional;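 further: transfected cells were stimulated with diluted bursicon conditioned medium after compound addition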
[20] = blockade of melanocortin 4 receptor signaling – cell-based, plate reader, cherry pick, counter-screen for LGR2 antagonist project, dose response (AID 743444); format: functional;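 further: transfected HEK 293 cells stimulated with alpha-MSH peptide; potency of inhibitors of the alpha-MSH evoked signal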
[21] = target: NAD-dependent protein deacylase sirtuin-5, mitochondrial (Homo sapiens, UniProt Q9NXA8); assay: blockers of sirtuin-5 peptide desuccinylation – biochemical, fluorescence imaging, cherry-pick, set 6, dose response (AID 720597)
[22] = LMP1-induced NF-kB luciferase signal inhibition – cell-based, EBV LMP1, dry powder, set 2, dose response (AID 624361); format: functional
[23] = viability loss in HEK293T cells – cell-based, CellTiter-Glo luminescence, dry powder, set 6, cytotoxicity control, dose response (AID 651949); format: functional; conditions: HEK293
[24] = HepG2 hepatoma cell viability loss – plate reader, dry powder, cytotoxicity control, dose response (AID 651947); format: functional, cell-based
[25] = target: E3 ubiquitin-protein ligase UHRF1 (Homo sapiens, UniProt Q96T88); assay: Counterscreen for inhibitors of 5-meCpG-binding domain protein 2 (MBD2): TRFRET-based biochemical high throughput dose response assay to identify inhibitors of binding of ubiquitin-like with PHD and ring finger domains 1 (UHRF1) to methylated oligonucleotide.
[26] = target: Aryl hydrocarbon receptor (Homo sapiens, UniProt P35869); assay: Luminescence-based cell-based high throughput dose response assay for activators of the Aryl Hydrocarbon Receptor (AHR). [Related pubchem assays: 2796 (Primary screen (AHR activators in singlicate)), 2845 (Confirmation screen (AHR activators in triplicate)), 434939 (Counterscreen (PXR activators in triplicate)), 2804 (Summary (AHR activators))]; format: ADME
[27] = test system: H4; assay: Luminescence Cell-Based Dose Response HTS to Identify Activators of 5'UTR Stem-Loop Driven Prion Protein mRNA Translation in H4 Neuroglioblastoma Cells. [Related pubchem assays: 1829 (Project Summary), 1814 (Primary HTS)]; format: functional; conditions: Homo sapiens
[28] = Luminescence Cell-Based Dose Response HTS to Identify Activators of Luciferase Translation or Activity in H4 […] Cells. [Related pubchem assays: 1829 (Project Summary), 1814 (Primary HTS)]; format: functional
[29] = Plasmodium falciparum Dd2 Sybr green parasite growth Measured in Cell-Based and Microorganism Combination System Using Plate Reader - 2153-01_Inhibitor_Dose_DryPowder_Activity_Set3.; format: functional
[30] = growth inhibition of PfATP4-mutant resistant parasites – NITD609-resistant line, SYBR Green, dry powder, dose response (AID 1159571); format: functional, cell-based;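 further: parasites synchronized at ring stage by sorbitol before testing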
[31] = toxicity to human HepG2 hepatoma cells – cell-based, plate reader, dry powder samples, cytotoxicity control, dose response (AID 1159569); format: functional;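 further: inhibitor potency with signal falling toward the positive control level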
[32] = Dd2 malaria parasite growth inhibition potency – SYBR Green, dry powder samples, dose response (AID 1159566); format: functional, cell-based;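 further: potency for growth inhibition with lower SYBR green DNA signal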
[33] = growth inhibition of yeast DHODH-expressing 3D7 parasites – SYBR Green, dry powder samples, dose response (AID 1159570); format: functional, cell-based;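 further: parasite growth measured after 72 hours of compound exposure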
[34] = P. falciparum Dd2 growth inhibitors, dose response, SYBR Green, cherry-picked samples (AID 1159567); format: functional, cell-based
[35] = test system: INS1; assay: INS-1E survival protection against cytokine death – cell-based, luminescence, retest, dose response (AID 449756); format: functional; conditions: Rattus norvegicus;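 further: cell death triggered by IL-1 beta plus TNF-alpha plus IFN-gamma mixture; protective hits raise ATP signal compared with cytokine alone wells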
[36] = target: Protein Wnt-3a (Mus musculus, UniProt P27467); assay: antagonism of Wnt3a pathway luciferase reporter – Wnt-LIGHT cells, luminescence, selectivity assay for Gli-SUFU antagonist project, dose response (AID 651570); format: functional; conditions: read-out: IC50_Mean;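 further: Wnt-LIGHT reporter cells stimulated with conditioned medium from Wnt3a-producing cells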
[37] = rise of 2N DNA cells, HeLa – IC50, dose response (AID 1117349); format: functional, cell-based
[38] = rise of 4N DNA cells, HeLa – IC50, dose response (AID 1117351); format: functional, cell-based

Protein Wnt-3a, sequence (P27467 whole entry): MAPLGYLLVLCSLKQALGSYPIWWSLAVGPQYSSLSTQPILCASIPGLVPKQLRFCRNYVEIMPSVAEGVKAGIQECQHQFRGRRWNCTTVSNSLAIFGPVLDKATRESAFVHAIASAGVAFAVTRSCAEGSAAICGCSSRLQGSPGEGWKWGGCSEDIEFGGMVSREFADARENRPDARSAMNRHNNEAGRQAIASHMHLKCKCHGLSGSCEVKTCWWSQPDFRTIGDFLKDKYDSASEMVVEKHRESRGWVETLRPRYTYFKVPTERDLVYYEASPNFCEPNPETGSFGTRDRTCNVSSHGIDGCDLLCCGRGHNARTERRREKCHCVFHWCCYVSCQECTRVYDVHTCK
Protein-tyrosine kinase 2-beta, sequence (Q14289 whole entry): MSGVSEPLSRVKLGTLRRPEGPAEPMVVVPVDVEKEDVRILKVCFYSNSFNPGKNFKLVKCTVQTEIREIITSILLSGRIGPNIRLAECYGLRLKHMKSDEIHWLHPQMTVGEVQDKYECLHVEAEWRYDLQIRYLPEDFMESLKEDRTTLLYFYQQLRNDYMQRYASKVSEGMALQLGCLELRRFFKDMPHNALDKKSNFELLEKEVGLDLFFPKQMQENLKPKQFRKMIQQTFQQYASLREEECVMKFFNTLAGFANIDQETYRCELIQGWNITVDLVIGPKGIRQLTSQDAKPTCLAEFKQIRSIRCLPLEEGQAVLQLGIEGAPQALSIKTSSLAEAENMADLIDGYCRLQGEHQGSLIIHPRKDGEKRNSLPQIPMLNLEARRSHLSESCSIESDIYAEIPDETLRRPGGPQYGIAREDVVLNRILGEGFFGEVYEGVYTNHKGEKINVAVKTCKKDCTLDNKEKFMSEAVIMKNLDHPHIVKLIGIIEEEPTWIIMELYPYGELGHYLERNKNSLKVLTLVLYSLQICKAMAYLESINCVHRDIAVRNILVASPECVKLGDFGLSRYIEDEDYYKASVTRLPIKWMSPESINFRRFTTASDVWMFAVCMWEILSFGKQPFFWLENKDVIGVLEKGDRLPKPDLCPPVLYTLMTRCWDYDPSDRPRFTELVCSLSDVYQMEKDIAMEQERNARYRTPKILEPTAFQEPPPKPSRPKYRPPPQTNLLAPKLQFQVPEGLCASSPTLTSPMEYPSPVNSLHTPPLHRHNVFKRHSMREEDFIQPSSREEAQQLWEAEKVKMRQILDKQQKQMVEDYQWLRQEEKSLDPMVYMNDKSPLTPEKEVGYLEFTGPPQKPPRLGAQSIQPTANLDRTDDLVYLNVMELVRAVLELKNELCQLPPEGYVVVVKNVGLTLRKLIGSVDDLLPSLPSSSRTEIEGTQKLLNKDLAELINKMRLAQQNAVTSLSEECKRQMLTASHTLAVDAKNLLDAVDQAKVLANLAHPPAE
5-hydroxytryptamine receptor 1A, sequence (P08908 whole entry): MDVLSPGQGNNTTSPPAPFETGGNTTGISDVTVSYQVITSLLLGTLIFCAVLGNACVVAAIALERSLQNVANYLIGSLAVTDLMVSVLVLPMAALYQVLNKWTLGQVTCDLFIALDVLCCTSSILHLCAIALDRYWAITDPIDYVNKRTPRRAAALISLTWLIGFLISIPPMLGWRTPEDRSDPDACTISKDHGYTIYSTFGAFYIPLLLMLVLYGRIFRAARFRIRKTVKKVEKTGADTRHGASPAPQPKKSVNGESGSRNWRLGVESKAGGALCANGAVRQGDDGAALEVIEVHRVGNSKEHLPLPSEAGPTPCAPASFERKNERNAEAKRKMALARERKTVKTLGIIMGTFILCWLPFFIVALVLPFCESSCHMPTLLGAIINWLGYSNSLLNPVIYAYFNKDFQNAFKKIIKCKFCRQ
E3 ubiquitin-protein ligase UHRF1, sequence (Q96T88 whole entry, the tested form may be a part): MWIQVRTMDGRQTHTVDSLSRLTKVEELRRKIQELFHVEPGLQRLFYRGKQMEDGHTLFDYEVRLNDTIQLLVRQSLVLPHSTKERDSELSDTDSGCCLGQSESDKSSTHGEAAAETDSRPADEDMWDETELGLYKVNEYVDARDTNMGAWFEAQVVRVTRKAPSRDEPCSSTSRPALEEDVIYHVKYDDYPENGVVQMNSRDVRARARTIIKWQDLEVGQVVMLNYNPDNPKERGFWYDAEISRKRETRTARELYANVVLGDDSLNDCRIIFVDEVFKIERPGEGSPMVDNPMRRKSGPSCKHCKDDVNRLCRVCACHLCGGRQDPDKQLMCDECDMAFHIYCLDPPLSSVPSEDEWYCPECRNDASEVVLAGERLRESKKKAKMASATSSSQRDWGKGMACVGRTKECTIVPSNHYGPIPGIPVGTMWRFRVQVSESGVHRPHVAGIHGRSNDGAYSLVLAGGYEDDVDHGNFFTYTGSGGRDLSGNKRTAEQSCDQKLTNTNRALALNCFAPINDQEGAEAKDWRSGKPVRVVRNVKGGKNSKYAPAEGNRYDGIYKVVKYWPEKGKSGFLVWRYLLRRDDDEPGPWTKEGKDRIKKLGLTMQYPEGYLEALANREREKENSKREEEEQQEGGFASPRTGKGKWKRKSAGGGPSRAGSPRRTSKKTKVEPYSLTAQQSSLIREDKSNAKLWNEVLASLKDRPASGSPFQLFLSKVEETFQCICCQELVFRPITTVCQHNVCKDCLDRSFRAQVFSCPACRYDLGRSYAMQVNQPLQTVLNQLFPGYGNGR
Kallikrein-7, sequence (P49862 whole entry): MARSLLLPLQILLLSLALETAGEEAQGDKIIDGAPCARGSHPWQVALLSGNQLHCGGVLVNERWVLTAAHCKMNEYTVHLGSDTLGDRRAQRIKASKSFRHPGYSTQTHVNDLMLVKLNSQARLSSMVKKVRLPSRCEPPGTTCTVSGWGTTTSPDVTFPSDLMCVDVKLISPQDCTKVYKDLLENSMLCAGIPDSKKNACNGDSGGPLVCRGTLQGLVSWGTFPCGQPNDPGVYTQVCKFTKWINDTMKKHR
Genome polyprotein, sequence (Q2Q167 whole entry): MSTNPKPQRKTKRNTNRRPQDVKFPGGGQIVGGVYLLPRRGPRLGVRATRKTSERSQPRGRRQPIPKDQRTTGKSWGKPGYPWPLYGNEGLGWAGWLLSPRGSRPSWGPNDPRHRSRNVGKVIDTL
NAD-dependent protein deacylase sirtuin-5, mitochondrial, sequence (Q9NXA8 whole entry): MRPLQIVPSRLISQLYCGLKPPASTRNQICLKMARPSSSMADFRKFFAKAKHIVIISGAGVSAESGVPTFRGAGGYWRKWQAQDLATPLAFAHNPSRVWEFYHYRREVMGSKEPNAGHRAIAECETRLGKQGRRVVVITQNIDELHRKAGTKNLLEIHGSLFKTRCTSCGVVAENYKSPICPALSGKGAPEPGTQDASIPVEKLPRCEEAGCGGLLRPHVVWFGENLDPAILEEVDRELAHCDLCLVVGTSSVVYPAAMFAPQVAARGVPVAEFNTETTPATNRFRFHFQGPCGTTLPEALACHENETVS
Cytochrome P450 3A4, sequence (P08684 whole entry): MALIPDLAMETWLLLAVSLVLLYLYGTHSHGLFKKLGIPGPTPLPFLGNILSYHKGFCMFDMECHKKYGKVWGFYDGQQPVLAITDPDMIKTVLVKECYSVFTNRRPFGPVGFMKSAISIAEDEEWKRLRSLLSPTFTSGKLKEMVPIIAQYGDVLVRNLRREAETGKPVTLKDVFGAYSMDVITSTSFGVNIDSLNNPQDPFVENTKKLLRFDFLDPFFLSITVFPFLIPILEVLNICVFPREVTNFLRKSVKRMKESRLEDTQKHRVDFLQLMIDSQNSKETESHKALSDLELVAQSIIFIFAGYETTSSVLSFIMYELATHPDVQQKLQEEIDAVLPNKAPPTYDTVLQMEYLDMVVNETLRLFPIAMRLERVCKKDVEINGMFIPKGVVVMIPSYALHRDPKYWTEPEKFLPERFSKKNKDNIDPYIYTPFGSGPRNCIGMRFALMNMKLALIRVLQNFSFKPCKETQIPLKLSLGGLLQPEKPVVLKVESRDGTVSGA
Photoreceptor-specific nuclear receptor, sequence (Q9Y5X4 whole entry): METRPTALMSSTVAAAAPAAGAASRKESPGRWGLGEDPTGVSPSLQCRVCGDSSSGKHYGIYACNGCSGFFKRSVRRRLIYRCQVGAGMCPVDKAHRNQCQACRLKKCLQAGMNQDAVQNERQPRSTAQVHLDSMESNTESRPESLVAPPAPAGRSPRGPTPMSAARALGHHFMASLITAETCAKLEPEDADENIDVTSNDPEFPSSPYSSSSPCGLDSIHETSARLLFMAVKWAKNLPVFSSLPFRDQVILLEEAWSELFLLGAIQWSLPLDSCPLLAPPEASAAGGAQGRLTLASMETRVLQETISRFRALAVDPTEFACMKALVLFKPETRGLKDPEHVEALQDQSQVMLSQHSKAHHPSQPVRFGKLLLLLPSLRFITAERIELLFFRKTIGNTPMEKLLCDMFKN

NC(=O)c1sc2nc3c(c(-c4ccco4)c2c1N)CCC3
IC50 [1]: 10.2 µM (not active)

COc1ccc(C(=O)NC(=S)Nc2ccc3[nH]c(=O)[nH]c3c2)c(OC)c1
IC50 [2]: > 49.8 µM (not active)

COc1ccc2[nH]c(-c3ccc(N)cc3)nc2c1
EC50 [3]: > 50 µM (not active)

COc1ccc(C(=O)NCc2ccc(-c3nc4ccccc4s3)cc2)cc1OC
IC50 [4]: 6.27 µM (active) | IC50 [5]: 5.83 µM (active)

CCOC(=O)C1CCCN(C(=O)c2sc3nc(-c4ccc(OC)cc4)cn3c2C)C1 (stereo not drawn)
IC50 [6]: 5.85 µM (active) | AC50 [7]: 14.1 µM (inconclusive)

O=C(CCS(=O)(=O)Cc1ccccc1)Nc1nc2c(s1)CCCC2
IC50 [8]: 13.4 µM (active)

COc1ccc(-c2csc(N(CCCN(C)C)C(=O)c3ccccc3Cl)n2)cc1
AC50 [9]: > 20 µM (inactive) | IC50 [10]: 25 µM (active)

Cc1[nH]c2ccccc2c1C1=CCNCC1
EC50 [11]: > 50 µM (not active) | AC50 [12]: 4.56 µM (active)

Cc1ccc2nc(NCC(=O)O)nc(-c3ccccc3)c2c1
EC50 [13]: 14.5 µM (inactive)

Cc1ccc2[nH]c(CSc3nc(C)ccc3C#N)nc2c1
AC50 [14]: > 52 µM (inactive) | AC50 [15]: > 52 µM (inactive) | EC50 [16]: > 67.5 µM (inactive) | EC50 [17]: > 120 µM (not active) | EC50 [18]: > 67.5 µM (inactive) | AC50 [19]: 30.8 µM (active) | AC50 [20]: 33.5 µM (active)

Cc1noc(C)c1S(=O)(=O)Nc1ccc2c(c1)C(=O)N([C@@H](C)CO)C[C@@H](C)[C@@H](CN(C)Cc1ccc(C(F)(F)F)cc1)OCCCC[C@@H](C)O2
AC50 [21]: > 15 µM (inactive) | AbsAC35 [22]: 38.34 µM

[O-][S+](Cc1cn(Cc2ccc(F)cc2)nn1)c1nnc(-c2ccc(Cl)cc2)o1 (stereo not drawn)
AC50 [23]: 17.2 µM (active) | AC50 [24]: 15.1 µM (active)

CC(=O)Nc1sc2c(c1-c1nc3ccccc3s1)CCN(C(C)C)CC2
IC50 [25]: 16.9 µM (inactive)

Cc1ccc(/C=N/n2cc(-c3ccccc3)nc2S)s1
EC50 [26]: 1.44 µM (active) | EC50 [27]: 20 µM (active) | EC50 [28]: 10.4 µM (active)

CC(C)NC(=O)N1[C@H](C#N)[C@H](c2ccc(C#CC3CCCC3)cc2)[C@@H]1CO
AC50 [29]: 0.845 µM (active) | AC50 [30]: 0.887 µM (active) | AC50 [31]: 36.7 µM (active) | AC50 [32]: 0.684 µM (active) | AC50 [33]: 3.52 µM (active) | AC50 [34]: 0.803 µM (active)

CCCCCCC[N+](CC)(CC)CCCCc1ccc(Cl)cc1
AC50 [35]: 4.29 µM (active) | IC50 [36]: 2.74 µM (active) | IC50 [37]: > 10 µM (inactive) | IC50 [38]: > 10 µM (inactive)
